Assay results published in PubChem BioAssay (NCI).
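Growth conditions: 96-well plates. Treatment: test compound, 48 hours, 5 concentrations. Analysis: linear interpolation between bracketing concentrations; unreached endpoints set to highest concentration. GI50 = concentration required for 50% inhibition of growth. TGI: concentration producing complete growth inhibition.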

Key:
Assay in all cases: inhibition of tumour cell growth, NCI panel, 48 h
CCRF-CEM leukemia = tested on: CCRF-CEM leukemia
HCT-15 colon = tested on: HCT-15 colon
MALME-3M melanoma = tested on: MALME-3M melanoma
NCI-H522 lung = tested on: NCI-H522 lung
OVCAR-3 ovarian = tested on: OVCAR-3 ovarian
SW-620 colon = tested on: SW-620 colon
HCC-2998 colon = tested on: HCC-2998 colon
NCI-H460 lung = tested on: NCI-H460 lung
MDA-MB-231 breast = tested on: MDA-MB-231 breast
NCI/ADR-RES ovarian = tested on: NCI/ADR-RES ovarian

| Compound | TGI (CCRF-CEM leukemia) | TGI (HCT-15 colon) | TGI (MALME-3M melanoma) | TGI (NCI-H522 lung) | TGI (OVCAR-3 ovarian) | TGI (SW-620 colon) | TGI (HCC-2998 colon) | TGI (NCI-H460 lung) | GI50 (HCC-2998 colon) | GI50 (HCT-15 colon) | GI50 (MALME-3M melanoma) | GI50 (MDA-MB-231 breast) | TGI (MDA-MB-231 breast) | GI50 (NCI-H460 lung) | GI50 (NCI-H522 lung) | GI50 (NCI/ADR-RES ovarian) | TGI (NCI/ADR-RES ovarian) | GI50 (OVCAR-3 ovarian) | GI50 (SW-620 colon) | GI50 (CCRF-CEM leukemia) |
| --- | --- | --- | --- | --- | --- | --- | --- | --- | --- | --- | --- | --- | --- | --- | --- | --- | --- | --- | --- | --- |
| CCCNCc1nc2ccc(Br)cc2c(=O)n1CCC | 36.3 µM | 27.4 µM | 26.4 µM | 26.8 µM | 32.5 µM | 28.3 µM | – | – | – | – | – | – | – | – | – | – | – | – | – | – |
| Cc1c(C(=O)/C=C/c2ccc(Cl)cc2)[n+](=O)c2ccccc2n1[O-] | > 100 µM | 24.1 µM | 38.1 µM | 17 µM | 27.4 µM | 21.9 µM | 24.5 µM | 29.1 µM | – | – | – | – | – | – | – | – | – | – | – | – |
| O=C(CCC(=O)Nc1ccc(Cl)cc1)CC(=O)c1ccc(F)cc1 | – | > 100 µM | > 100 µM | > 100 µM | > 100 µM | > 100 µM | > 100 µM | > 100 µM | – | – | – | – | – | – | – | – | – | – | – | – |
| CC(=O)N1CC2Nc3ccccc3C2CC1CO (centres undefined) | > 100 µM | > 100 µM | > 100 µM | > 100 µM | > 100 µM | > 100 µM | > 100 µM | > 100 µM | – | – | – | – | – | – | – | – | – | – | – | – |
| Brc1ccc([I+]c2ccc(Br)cc2)cc1 | – | 42.7 µM | 12.3 µM | 3.18 µM | 3.06 µM | 4.31 µM | 8.12 µM | 4.23 µM | 1.32 µM | 8.3 µM | 1.38 µM | 2.34 µM | 17 µM | 0.866 µM | 1.28 µM | > 100 µM | > 100 µM | 1.19 µM | 0.992 µM | – |
| C(=C\c1csnn1)/c1cccnc1 | – | > 100 µM | > 100 µM | > 100 µM | > 100 µM | > 100 µM | > 100 µM | > 100 µM | – | – | – | – | – | – | – | – | – | – | – | – |
| O=c1ccccc2cccc(O)c12 | > 100 µM | > 100 µM | – | – | > 100 µM | > 100 µM | > 100 µM | > 100 µM | – | – | – | – | – | – | – | – | – | – | – | – |
| COc1ccc(C(c2ccc(C(C)C)cc(=O)c2O)c2c(O)cc3oc(-c4ccccc4)cc(=O)c3c2O)cc1 (centres undefined) | > 100 µM | 43.6 µM | – | – | 19 µM | > 100 µM | 33.6 µM | 15.8 µM | – | – | – | – | – | – | – | – | – | – | – | – |
| O=C1Nc2ccccc2C1Cc1ccccc1 (centres undefined) | > 100 µM | > 100 µM | > 100 µM | > 100 µM | > 100 µM | > 100 µM | > 100 µM | > 100 µM | – | – | – | – | – | – | – | – | – | – | – | – |
| O=C1CCCC/C1=C/C=C/c1ccccc1 | > 100 µM | – | > 100 µM | 61.2 µM | > 100 µM | > 100 µM | > 100 µM | > 100 µM | – | – | – | – | – | – | – | – | – | – | – | – |
| O=c1/c(=C/c2ccc(Cl)cc2Cl)sc2nc3ccccc3n12 | > 100 µM | > 100 µM | > 100 µM | > 100 µM | > 100 µM | > 100 µM | > 100 µM | > 100 µM | – | – | – | – | – | – | – | – | – | – | – | – |
| CCOC(=O)/N=C(\N)SCc1ccccc1 | > 100 µM | > 100 µM | > 100 µM | > 100 µM | – | > 100 µM | > 100 µM | > 100 µM | – | – | – | – | – | – | – | – | – | – | – | – |
| Cc1cc(NS(=O)(=O)c2ccc(NC(=O)c3cccc4c(N)c5ccccc5nc34)cc2)no1 | 66.5 µM | > 100 µM | 77.4 µM | 33.9 µM | 52.8 µM | 94.2 µM | – | > 100 µM | – | – | – | – | – | – | – | – | – | – | – | – |
| O=c1cc(Cl)nc[nH]1 | > 100 µM | > 100 µM | > 100 µM | > 100 µM | > 100 µM | > 100 µM | > 100 µM | > 100 µM | – | – | – | – | – | – | – | – | – | – | – | – |
| COc1ccc2[nH]cc(-c3nc(-c4cn(C)c5ccncc45)cs3)c2c1 | 6.25 µM | 3.92 µM | 3.65 µM | 3.52 µM | 3.41 µM | 3.81 µM | 3.42 µM | 3.67 µM | 1.88 µM | 1.88 µM | 2.11 µM | 1.87 µM | 3.4 µM | 1.97 µM | 1.74 µM | – | – | 1.85 µM | 1.95 µM | 2.33 µM |
| CCC[CH2][Sn]([CH2]CCC)([O]C(=O)c1cccc(F)c1)[O]C(=O)c1cccc(F)c1 | 0.832 µM | 3.45 µM | 2.25 µM | 0.91 µM | 2.17 µM | – | 2.81 µM | 5.38 µM | 1.47 µM | 1.16 µM | 0.907 µM | – | – | 2.08 µM | 0.246 µM | – | – | 0.956 µM | – | 0.239 µM |
| CC1(O)CC2C(CC1SCCO)C2(C)C (centres undefined) | > 100 µM | > 100 µM | > 100 µM | – | > 100 µM | – | > 100 µM | > 100 µM | – | – | – | – | – | – | – | – | – | – | – | – |
